Laboratory results as given in US10501438B2, “Aryl-substituted dihydroquinolinones, their preparation and their use as pharmaceuticals” (NEOMED Institute, priority 2015, dated 2019).

The molecules below were run on human C-Myc transcription in MV-4-11 cells (assay: Transcription of human C-Myc in human leukemic MV-4-11 cells (QuantiGene 2.0)). Conditions: Homo sapiens, MV4-11, 4 h, inhibition of C-Myc mRNA, 4 hours treatment.
Format: cell-based
Description: b) Transcription of Human C-Myc in Human Leukemic MV-4-11 Cells:
The effect of compounds on transcription of human C-Myc gene is monitored in human B-myelomonocytic leukemia cell line MV-4-11 (from American Type Culture Collection (ATCC), Manassas, Va., USA) using QuantiGene 2.0 assay kit (Affymetrix, Santa Clara, Calif., USA).
Typically, 8,000 MV-4-11 cells are plated in sterile 96-well plates (Costar #3598 from Fisher Scientific Canada, Ottawa, Ontario, Canada) in Iscove's medium supplemented with 10% fetal bovine serum, glutamine (2 mM), and penicillin (100 I.U.) and streptomycin (100 μg/mL) (all from Wisent Inc., St. Bruno, Quebec, Canada). Compounds are dissolved in DMSO at 30 mM. A series of 1:3 dilutions are first made in DMSO, and further 1:100 dilutions are made in serum-containing cell culture media. The final concentration of DMSO is 0.1% in cell culture media. After cells are treated with various concentrations of test compound for 4 hours, cells are lysed using Quantigene 2.0 sample processing kit (#QS0100). C-Myc mRNA is detected using a QuantiGene 2.0 assay kit (#QS0009) with gene-specific probe to human C-Myc (#SA-50182) following the manufacturer's recommendations. Luminescene signals are read on Flexstation II microplate reader (Molecular Devices, Sunnyvale, Calif., USA).
Work on `Cc1cc(-c2cc3c(c(COCC(F)(F)F)c2)NC(=O)CC3)cn(C)c1=O` [Compound 46, 6-(1,5-dimethyl-6-oxo-1,6-dihydropyridin-3-yl)-8-((2,2,2-trifluoroethoxy)methyl)-3,4-dihydroquinolin-2(1H)-one] yielded an IC50 of 910 nM.
In the case of `Cc1cc(-c2cc3c(c(O[C@H](C)c4ccccn4)c2)NC(=O)CC3)cn(C)c1=O` [Compound 74b, (R)-6-(1,5-dimethyl-6-oxo-1,6-dihydropyridin-3-yl)-8-(1-(pyridin-2-yl)ethoxy)-3,4-dihydroquinolin-2(1H)-one], the IC50 is reported as 410 nM.
In the case of `Cc1cc(-c2ccc3c(c2Cc2ccccc2)NC(=O)CC3)cn(C)c1=O` [Compound 30, 8-benzyl-7-(1,5-dimethyl-6-oxo-1,6-dihydropyridin-3-yl)-3,4-dihydroquinolin-2(1H)-one], the IC50 is reported as 250 nM.
`Cc1cc(-c2cc3c(c(OCc4ccncc4)c2)NC(=O)CC3)cn(C)c1=O` [Compound 73, 6-(1,5-dimethyl-6-oxo-1,6-dihydropyridin-3-yl)-8-(pyridin-4-ylmethoxy)-3,4-dihydroquinolin-2(1H)-one] was tested, and the IC50 was 500 nM.
Work on `Cc1cc(-c2cc3c(c(COC4CCCCC4)c2)NC(=O)CC3)cn(C)c1=O` [Compound 27, 8-(cyclohexoxymethyl)-6-(1,5-dimethyl-6-oxo-3-pyridyl)-3,4-dihydro-1H-quinolin-2-one] yielded an IC50 of 150 nM.
In the case of `Cc1cc(-c2cc3c(c(OCC4CCCCO4)c2)NC(=O)CC3)cn(C)c1=O` (stereo not drawn) [Compound 55a, 6-(1,5-dimethyl-6-oxo-1,6-dihydropyridin-3-yl)-8-((tetrahydro-2H-pyran-2-yl)methoxy)-3,4-dihydroquinolin-2(1H)-one], the IC50 is reported as 580 nM.
With `Cc1cc(-c2ccc3c(c2COC2CCC2)CCC(=O)N3)cn(C)c1=O` [Compound 67, 5-(cyclobutoxymethyl)-6-(1,5-dimethyl-6-oxo-1,6-dihydropyridin-3-yl)-3,4-dihydroquinolin-2(1H)-one] the IC50 was 2030 nM.
Work on `Cc1cc(-c2ccc3c(c2COC2CCCC2)CCC(=O)N3)cn(C)c1=O` [Compound 68, 5-((cyclopentyloxy)methyl)-6-(1,5-dimethyl-6-oxo-1,6-dihydropyridin-3-yl)-3,4-dihydroquinolin-2(1H)-one] yielded an IC50 of 8560 nM.
Work on `Cc1cc(-c2cc3c(c(OCc4nccs4)c2)NC(=O)CC3)cn(C)c1=O` [Compound 83, 6-(1,5-dimethyl-6-oxo-1,6-dihydropyridin-3-yl)-8-(thiazol-2-ylmethoxy)-3,4-dihydroquinolin-2(1H)-one] yielded an IC50 of 510 nM.
Work on `Cc1cc(-c2ccc3c(c2Cc2ccc(C#N)cc2)CCC(=O)N3)cn(C)c1=O` [Compound 87, 4-((6-(1,5-dimethyl-6-oxo-1,6-dihydropyridin-3-yl)-2-oxo-1,2,3,4-tetrahydroquinolin-5-yl)methyl)benzonitrile] yielded an IC50 of 100 nM.
In the case of `Cc1cc(-c2cc3c(c(O[C@@H](C)c4ccccn4)c2)NC(=O)CC3)cn(C)c1=O` [Compound 74a, (S)-6-(1,5-dimethyl-6-oxo-1,6-dihydropyridin-3-yl)-8-(1-(pyridin-2-yl)ethoxy)-3,4-dihydroquinolin-2(1H)-one], the IC50 is reported as 120 nM.
`Cc1cc(-c2cc3c(cc2Cc2ccccc2)CCC(=O)N3)cn(C)c1=O` [Compound 31, 6-benzyl-7-(1,5-dimethyl-6-oxo-1,6-dihydropyridin-3-yl)-3,4-dihydroquinolin-2(1H)-one] showed an IC50 of 290 nM.
In the case of `Cc1cc(-c2ccc3c(c2Cc2cccc(F)c2)CCC(=O)N3)cn(C)c1=O` [Compound 86, 6-(1,5-dimethyl-6-oxo-1,6-dihydropyridin-3-yl)-5-(3-fluorobenzyl)-3,4-dihydroquinolin-2(1H)-one], the IC50 is reported as 370 nM.
`Cc1cc(-c2ccc3c(c2Cc2ccccc2C#N)CCC(=O)N3)cn(C)c1=O` [Compound 89, 2-((6-(1,5-dimethyl-6-oxo-1,6-dihydropyridin-3-yl)-2-oxo-1,2,3,4-tetrahydroquinolin-5-yl)methyl)benzonitrile] showed an IC50 of 560 nM.
`Cc1cc(-c2cc3c(c(OCC4CCOCC4)c2)NC(=O)CC3)cn(C)c1=O` [Compound 72, 6-(1,5-dimethyl-6-oxo-1,6-dihydropyridin-3-yl)-8-((tetrahydro-2H-pyran-4-yl)methoxy)-3,4-dihydroquinolin-2(1H)-one] showed an IC50 of over 6140 nM.
In the case of `Cc1cc(-c2cc(COC3CCCC3)c3c(c2)NC(=O)CC3)cn(C)c1=O` [Compound 100, 5-((cyclopentyloxy)methyl)-7-(1,5-dimethyl-6-oxo-1,6-dihydropyridin-3-yl)-3,4-dihydroquinolin-2(1H)-one], the IC50 is reported as 610 nM.
Work on `Cn1cc(-c2cc3c(c(OCc4cccnc4)c2)NC(=O)CC3)cc(Cl)c1=O` [Compound 80, 6-(5-chloro-1-methyl-6-oxo-1,6-dihydropyridin-3-yl)-8-(pyridin-3-yl-methoxy)-3,4-dihydroquinolin-2(1H)-one] yielded an IC50 of 520 nM.
For `Cc1cc(-c2ccc3c(c2CCc2ccccc2)CCC(=O)N3)cn(C)c1=O` [Compound 96, 6-(1,5-dimethyl-6-oxo-1,6-dihydropyridin-3-yl)-5-phenethyl-3,4-dihydroquinolin-2(1H)-one], the IC50 was 780 nM.
`Cc1cc(-c2cc3c(c(OCc4ccccn4)c2)NC(=O)CC3)cn(C)c1=O` [Compound 26, 6-(1,5-dimethyl-6-oxo-1,6-dihydropyridin-3-yl)-8-(pyridin-2-ylmethoxy)-3,4-dihydroquinolin-2(1H)-one] showed an IC50 of 280 nM.
`Cc1cc(-c2ccc3c(c2Cc2cccc(C#N)c2)CCC(=O)N3)cn(C)c1=O` [Compound 88, 3-((6-(1,5-dimethyl-6-oxo-1,6-dihydropyridin-3-yl)-2-oxo-1,2,3,4-tetrahydroquinolin-5-yl)methyl)benzonitrile] was tested, and the IC50 was 260 nM.
With `Cc1cc(-c2ccc3c(c2COC2CCCC2)NC(=O)CC3)cn(C)c1=O` [Compound 38, 8-((cyclopentyloxy)methyl)-7-(1,5-dimethyl-6-oxo-1,6-dihydropyridin-3-yl)-3,4-dihydroquinolin-2(1H)-one] the IC50 was 540 nM.
`Cc1cc(-c2cc3c(c(CN(C)C4CCCC4)c2)NC(=O)CC3)cn(C)c1=O` [Compound 97, 8-((cyclopentyl(methyl)amino)methyl)-6-(1,5-dimethyl-6-oxo-1,6-dihydropyridin-3-yl)-3,4-dihydroquinolin-2(1H)-one] was tested, and the IC50 was 790 nM.
Molecule `Cc1cc(-c2cc(Cc3ccccc3)c3c(c2)NC(=O)CC3)cn(C)c1=O` [Compound 99, 5-benzyl-7-(1,5-dimethyl-6-oxo-1,6-dihydropyridin-3-yl)-3,4-dihydroquinolin-2(1H)-one] has an IC50 of 840 nM.
For `Cc1ccc(COc2cc(-c3cc(C)c(=O)n(C)c3)cc3c2NC(=O)CC3)nc1` [Compound 75, 6-(1,5-dimethyl-6-oxo-1,6-dihydropyridin-3-yl)-8-((5-methylpyridin-2-yl)methoxy)-3,4-dihydroquinolin-2(1H)-one], the IC50 was 180 nM.
`Cc1cc(-c2cc3c(c(OC4CCCCC4)c2)NC(=O)CC3)cn(C)c1=O` [Compound 16, 8-(cyclohexyloxy)-6-(1,5-dimethyl-6-oxo-1,6-dihydropyridin-3-yl)-3,4-dihydroquinolin-2(1H)-one] showed an IC50 of 530 nM.
Molecule `Cc1cc(-c2cc3c(cc2Cc2ccc(F)cc2)NC(=O)CC3)cn(C)c1=O` [Compound 90, 6-(1,5-dimethyl-6-oxo-1,6-dihydropyridin-3-yl)-7-(4-fluorobenzyl)-3,4-dihydroquinolin-2(1H)-one] has an IC50 of 240 nM.
Molecule `Cc1cc(-c2cc3c(c(OCC4CCC4)c2)NC(=O)CC3)cn(C)c1=O` [Compound 20, 8-(cyclobutylmethoxy)-6-(1,5-dimethyl-6-oxo-1,6-dihydropyridin-3-yl)-3,4-dihydroquinolin-2(1H)-one] has an IC50 of 790 nM.
In the case of `Cc1cc(-c2ccc3c(c2Cc2ccccn2)CCC(=O)N3)cn(C)c1=O` [Compound 57, 6-(1,5-dimethyl-6-oxo-1,6-dihydropyridin-3-yl)-5-(pyridin-2-ylmethyl)-3,4-dihydroquinolin-2(1H)-one], the IC50 is reported as 240 nM.
With `Cc1cc(-c2cc3c(c(OCc4cnccn4)c2)NC(=O)CC3)cn(C)c1=O` [Compound 52, 6-(1,5-dimethyl-6-oxo-1,6-dihydropyridin-3-yl)-8-(pyrazin-2-ylmethoxy)-3,4-dihydroquinolin-2(1H)-one] the IC50 was 550 nM.
For `Cc1cc(-c2cc3c(c(OCC4CCCOC4)c2)NC(=O)CC3)cn(C)c1=O` (stereo not drawn) [Compound 54a, 6-(1,5-dimethyl-6-oxo-1,6-dihydropyridin-3-yl)-8-((tetrahydro-2H-pyran-3-yl)methoxy)-3,4-dihydroquinolin-2(1H)-one], the IC50 was 550 nM.

Same assay, conditions: inhibition of C-Myc mRNA, 4 hours treatment
`Cc1cc(-c2cc3c(c(COC4CCCOC4)c2)NC(=O)CC3)cn(C)c1=O` (stereo not drawn) [Compound 48b, 6-(1,5-dimethyl-6-oxo-1,6-dihydropyridin-3-yl)-8-(((tetrahydro-2H-pyran-3-yl)oxy)methyl)-3,4-dihydroquinolin-2(1H)-one] showed an IC50 of 2740 nM.
`Cc1cc(-c2cc3c(c(OC(C)c4cccnc4)c2)NC(=O)CC3)cn(C)c1=O` (single isomer, unassigned) [Compound 92b, 6-(1,5-dimethyl-6-oxo-1,6-dihydropyridin-3-yl)-8-(1-(pyridin-3-yl)ethoxy)-3,4-dihydroquinolin-2(1H)-one] was tested, and the IC50 was 510 nM.
`Cc1cc(-c2cc3c(c(OCC4CCCCO4)c2)NC(=O)CC3)cn(C)c1=O` (stereo not drawn) [Compound 55b, 6-(1,5-dimethyl-6-oxo-1,6-dihydropyridin-3-yl)-8-((tetrahydro-2H-pyran-2-yl)methoxy)-3,4-dihydroquinolin-2(1H)-one] showed an IC50 of 800 nM.
